From patent publication US9194872B2, “Potentiation of nanopharyngeal cancer radiotherapy by inhibitors of leukemia inhibitory factor” (Chang Gung University, priority 2013, dated 2015)

Assays:
[1] = system: nasopharyngeal cancer cell; test: Caspase3/7 positive cells after substance treatment and radiation in 4 Gy; assay type: cell-based; conditions: radiation 4 Gy; 96th hour after emission; LIF versus sLIFR treatment; FIG. 4D
[2] = system: CNE1 cells; test: Resistance of nasopharyngeal cancer cell to radiation in various doses (xCelligence); assay type: cell-based; conditions: LIF 10 ng/ml; for IC50 value of the radiation for the treated cells: FIG. 4B
Method: Firstly, 6×10^3 CNE1 cells were seeded. After cultivated at 37° C. overnight, the seeded cells were treated with PBS and leukemia inhibitory factor (10 ng/ml), and then radiation in various doses were emitted to the treated cells. Finally, an xCelligence real time cell analyzer was used to detect the cell growth at a certain time point after this emission.

[3] = system: TW06 cell transfected with firefly luciferase 2 reporter gene; test: Tumor growth of mouse with intratumoral injection and radiation in 7 Gy; assay type: in vivo, NOD/SCID mouse; conditions: twice per week, 4 weeks, LIF 150-200 ng, sLIFR 1-2 μg, radiation 7 Gy following first injection, FIGS. 5A, 5B
Method: A TW06 cell transfected with firefly luciferase 2 reporter gene was subcutaneously injected into the thigh of a 7-week-old NOD/SCID mouse. Until the tumor on the thigh was grown to a volume of 60-100 mm^3, PBS, leukemia inhibitory factor (150-200 ng, twice per week, 4 weeks), or a soluble leukemia inhibitory factor receptor (1-2 μg, twice per week, 4 weeks) was intratumorally injected into the mouse, and then radiation in a dose of 7 Gy were emitted to the mouse following the first injection. Finally, the mouse's tumor was observed, and its activity and volume were detected by an in vivo imaging system at a certain time point after the emission.

[4] = system: TW06 cell transfected with firefly luciferase 2 reporter gene; test: Tumor growth of mouse with intratumoral injection (in vivo imaging system); design: species or system NOD/SCID mouse; conditions: twice per week, 4 weeks, LIF 150-200 ng, sLIFR 1-2 μg, compared with PBS, FIGS. 3B, 3C
Method: In addition, a TW06 cell transfected with firefly luciferase 2 reporter gene was subcutaneously injected into the thigh of a 7-week-old NOD/SCID (non-obese diabetic/severe-combined immunodeficient) mouse. Until the tumor on the mouse's thigh was grown to a volume of 50 mm^3, PBS, leukemia inhibitory factor (150-200 ng, twice per week, 4 weeks), or a soluble leukemia inhibitory factor receptor (1-2 μg, twice per week, 4 weeks) was intratumorally injected into the mouse. Finally, the mouse's tumor was observed, and its activity and volume were detected by an in vivo imaging system at a certain time point after the injection.

[5] = system: ATM, p53, γH2AX, NBS1 or CDC25C; test: Western blotting of apoptosis-related and DNA damage-related proteins after radiation in 4 Gy; assay type: cell-based; conditions: TW06 and CNE1 cells; radiation 4 Gy; 10th minute following emission; sLIFR versus LIF; FIGS. 4E, 4F
[6] = system: CNE1 cells or TW06 cells; test: Cell survival after substance treatment and radiation in 4 Gy (xCelligence); assay type: cell-based; conditions: radiation 4 Gy, sLIFR 1 μg/ml, LIF 10 ng/ml, FIG. 4C
Method: In another aspect, 6×10^3 CNE1 cells or TW06 cells were seeded, and then cultivated at 37° C. overnight. The cultivated cells were treated with PBS, a soluble leukemia inhibitory factor receptor (1 μg/ml), leukemia inhibitory factor (10 ng/ml), or leukemia inhibitory factor plus a soluble leukemia inhibitory factor receptor. After which, radiation in 4 Gy were emitted to the treated cells. Finally, an xCelligence real time cell analyzer was used to detect the cell survival at a certain time point after this emission.

[7] = system: TW06 cells; test: Growth of nasopharyngeal cancer cell in vitro (xCelligence real time cell analyzer); assay type: cell-based; conditions: sLIFR 1 μg/ml, LIF 10 ng/ml, compared among PBS, sLIFR plus LIF, FIG. 3A
Method: 6×10^3 TW06 cells were seeded, and then cultivated at 37° C. overnight. These cells were treated with PBS, a soluble leukemia inhibitory factor receptor (1 μg/ml), leukemia inhibitory factor (10 ng/ml), or a soluble leukemia inhibitory factor receptor plus leukemia inhibitory factor. After which, an xCelligence real time cell analyzer (Roche Applied Science) was used to detect the cell growth at a certain time point after this treatment.

| Molecule | Caspase3/7 expression level [1] | IC50 value of the radiation for the treated cells ([2]; 48th hour after radiation emission (PBS 1.5 Gy)) [Gy] | IC50 value of the radiation for the treated cells ([2]; 55th hour after radiation emission (PBS 1.3 Gy)) [Gy] | growth of cells with radiation emission ([2]; radiation in various doses, versus PBS, FIG. 4A) | tumor volume of the mouse with radiation emission [3] | tumor volume of the mouse [4] | activation/phosphorylation of apoptosis-related and DNA damage-related proteins [5] | growth of cells with radiation emission [6] | growth of cells [7] |
| --- | --- | --- | --- | --- | --- | --- | --- | --- | --- |
| leukemia inhibitory factor: a cytokine belonging to the interleukin-6 family and mediating cell growth through inhibition of cell differentiation | low Caspase3/7 expression level | 3.7 | 5.8 | more obvious than that with PBS treatment and radiation emission | the biggest | the biggest | – | – | – |
| soluble leukemia inhibitory factor receptor: non-transmembrane protein (soluble receptor) that can bind leukemia inhibitory factor (protein, UniProt P42702 45-833, looked up, extracellular domain) extracellular domain: QKKGAPHDLKCVTNNLQVWNCSWKAPSGTGRGTDYEVCIENRSRSCYQLEKTSIKIPALSHGDYEITINSLHDFGSSTSKFTLNEQNVSLIPDTPEILNLSADFSTSTLYLKWNDRGSVFPHRSNVIWEIKVLRKESMELVKLVTHNTTLNGKDTLHHWSWASDMPLECAIHFVEIRCYIDNLHFSGLEEWSDWSPVKNISWIPDSQTKVFPQDKVILVGSDITFCCVSQEKVLSALIGHTNCPLIHLDGENVAIKIRNISVSASSGTNVVFTTEDNIFGTVIFAGYPPDTPQQLNCETHDLKEIICSWNPGRVTALVGPRATSYTLVESFSGKYVRLKRAEAPTNESYQLLFQMLPNQEIYNFTLNAHNPLGRSQSTILVNITEKVYPHTPTSFKVKDINSTAVKLSWHLPGNFAKINFLCEIEIKKSNSVQEQRNVTIKGVENSSYLVALDKLNPYTLYTFRIRCSTETFWKWSKWSNKKQHLTTEASPSKGPDTWREWSSDGKNLIIYWKPLPINEANGKILSYNVSCSSDEETQSLSEIPDPQHKAEIRLDKNDYIISVVAKNSVGSSPPSKIASMEIPNDDLKIEQVVGMGKGILLTWHYDPNMTCDYVIKWCNSSRSEPCLMDWRKVPSNSTETVIESDEFRPGIRYNFFLYGCRNQGYQLLRSMIGYIEELAPIVAPNFTVEDTSADSILVKWEDIPVEELRGFLRGYLFYFGKGERDTSKMRVLESGRSDIKVKNITDISQKTLRIADLQGKTSYHLVLRAYTDGGVGPEKSMYVVTKENS | – | – | – | – | the smallest | the smallest | activated/phosphorylated more strongly | the most unobvious | the most unobvious |
